Reference: ChEMBL document CHEMBL1201862, “PubChem BioAssay data set” (2004)
The source made the active and inactive calls.

Tests used:
[1] = target: T1, Endoribonuclease toxin MazF (Escherichia coli K-12, UniProt P0AE70); assay: MazF toxin RNase activators, dose response, biochemical, fluorescence, single-stranded RNA substrate, uHTS hits (AID 588481); assay type: functional
[2] = system: Streptococcus sp. 'group A'; assay: growth inhibition of control SK(-) GAS strain, dose response, counter-screen for streptokinase expression inhibitor project, luminescence, kanamycin, BacTiterGlo, confirmation (AID 1900); assay type: functional, organism-based
[3] = target: Galanin receptor type 2 (Homo sapiens, UniProt O43603); assay: Dose Response cell-based high-throughput screening assay to identify antagonists of galanin receptor 2 (GALR2). [Related pubchem assays: 828, 866 ]; assay type: functional
[4] = target: T1, Endoribonuclease toxin MazF; assay: fluorescent RNA oligo signal without MazF, dose response, counter-screen for MazEF activator project, biochemical, fluorescence, single-stranded RNase substrate (AID 588502); assay type: functional
[5] = system: Streptococcus; assay: Group A Streptococcus viability loss, dose response, counter-screen for streptokinase expression inhibitor project, luminescence, BacTiterGlo (AID 1915); assay type: functional, organism-based;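 also: potency for reduction of bacterial viability or growth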
[6] = target: T2, Streptokinase A (Streptococcus pyogenes serotype M1, UniProt P10520); assay: S. pyogenes streptokinase expression inhibitors, potency, dose response, plasminogen activation absorbance, OD405 (AID 1914); assay type: functional, Streptococcus pyogenes M1 GAS;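 also: secreted streptokinase activity via plasminogen activation per viability signal from cell pellet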
T2 sequence (P10520 whole entry): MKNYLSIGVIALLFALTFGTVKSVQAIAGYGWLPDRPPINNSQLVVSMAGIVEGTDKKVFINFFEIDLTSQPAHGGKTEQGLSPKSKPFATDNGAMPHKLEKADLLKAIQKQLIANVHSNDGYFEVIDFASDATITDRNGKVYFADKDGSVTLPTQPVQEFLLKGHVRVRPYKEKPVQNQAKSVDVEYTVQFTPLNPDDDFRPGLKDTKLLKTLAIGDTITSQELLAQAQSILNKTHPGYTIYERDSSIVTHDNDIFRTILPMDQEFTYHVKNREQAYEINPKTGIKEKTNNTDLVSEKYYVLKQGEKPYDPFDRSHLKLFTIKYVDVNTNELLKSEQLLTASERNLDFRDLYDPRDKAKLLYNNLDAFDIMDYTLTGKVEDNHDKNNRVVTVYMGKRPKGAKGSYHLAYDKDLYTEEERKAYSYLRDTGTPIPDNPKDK

[7] = viability loss in Mcl1-dependent HMC-1-8 cells, dose response, selectivity assay for A1 inhibitor project, cell-based, luminescence, dry powder (AID 504415); assay type: functional; settings: Homo sapiens
[8] = cytotoxicity in HEK-293T cells, dose response, cytotoxicity control for BCR NF-kB inhibitor project, luminescence, B-cell screen hits (AID 489021); assay type: functional, cell-based;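 also: HEK-293T cells carrying an NF-kB luciferase reporter; cells exposed to compound for about 14 hours before viability readout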
[9] = target: Beta-2 adrenergic receptor (Homo sapiens, UniProt P07550); assay: beta2AR agonists driving receptor internalization, dose response, cell-based, FAP fluorogen, flow cytometry, cherry pick 1 (AID 588763); assay type: functional
[10] = target: T3, RNA-binding protein pos-1 (Caenorhabditis elegans, UniProt G5EF15); assay: inhibitors of POS-1/mex-3 RNA binding, dose response, biochemical, fluorescence polarization (AID 1964);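 also: purified POS-1 fused to maltose binding protein made in E. coli; potency of compounds blocking POS-1 binding to fluorescent RNA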
T3 sequence (G5EF15 whole entry): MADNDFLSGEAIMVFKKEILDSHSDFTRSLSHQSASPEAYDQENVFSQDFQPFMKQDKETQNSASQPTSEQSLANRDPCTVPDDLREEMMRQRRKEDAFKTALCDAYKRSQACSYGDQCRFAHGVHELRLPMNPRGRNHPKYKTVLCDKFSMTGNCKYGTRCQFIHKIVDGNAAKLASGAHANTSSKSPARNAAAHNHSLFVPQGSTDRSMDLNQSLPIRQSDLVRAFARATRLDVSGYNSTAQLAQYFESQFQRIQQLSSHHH

[11] = target: Botulinum neurotoxin type F (Clostridium botulinum, UniProt P30996); assay: High-throughput multiplex microsphere dose response for inhibitors of toxin protease, specifically Botulinum neurotoxin light chain F protease, compounds from Cherry Pick 01.; assay type: functional; settings: read-out: EC50_MICROM
[12] = target: Lethal factor (Bacillus anthracis, UniProt P15917); assay: High-throughput multiplex microsphere dose response for inhibitors of toxin protease, specifically Lethal Factor protease, compounds from Cherry Pick 01.; assay type: functional; settings: read-out: EC50_MICROM
[13] = target: T4, Zinc finger protein mex-5 (Caenorhabditis elegans, UniProt Q9XUB2); assay: MEX-5/TCR-2 RNA interaction inhibitors, dose response, biochemical, C. elegans, fluorescence polarization (AID 1960)
T4 sequence (Q9XUB2 whole entry): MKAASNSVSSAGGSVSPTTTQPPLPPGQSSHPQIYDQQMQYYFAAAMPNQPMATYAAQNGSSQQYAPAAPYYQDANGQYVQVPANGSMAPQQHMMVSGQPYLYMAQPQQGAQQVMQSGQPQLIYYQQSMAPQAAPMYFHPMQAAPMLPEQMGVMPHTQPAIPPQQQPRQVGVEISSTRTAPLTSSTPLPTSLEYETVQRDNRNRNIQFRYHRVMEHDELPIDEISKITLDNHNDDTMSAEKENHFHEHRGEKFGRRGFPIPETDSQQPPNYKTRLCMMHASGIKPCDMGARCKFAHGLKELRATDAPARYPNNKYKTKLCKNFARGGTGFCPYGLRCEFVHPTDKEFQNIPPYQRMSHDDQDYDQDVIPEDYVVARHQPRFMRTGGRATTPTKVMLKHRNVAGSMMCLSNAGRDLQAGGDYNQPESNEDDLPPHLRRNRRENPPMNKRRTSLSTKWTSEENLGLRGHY

[14] = target: T5, Corticotropin-releasing factor receptor 2/Corticotropin-releasing factor-binding protein (Homo sapiens, UniProt P24387+Q13324); assay: activators of CRF receptor 2 with binding protein – uHTS hits, confirmation (AID 602473); assay type: functional; settings: read-out: EC50_Mean
T5 sequence (Q13324 whole entry): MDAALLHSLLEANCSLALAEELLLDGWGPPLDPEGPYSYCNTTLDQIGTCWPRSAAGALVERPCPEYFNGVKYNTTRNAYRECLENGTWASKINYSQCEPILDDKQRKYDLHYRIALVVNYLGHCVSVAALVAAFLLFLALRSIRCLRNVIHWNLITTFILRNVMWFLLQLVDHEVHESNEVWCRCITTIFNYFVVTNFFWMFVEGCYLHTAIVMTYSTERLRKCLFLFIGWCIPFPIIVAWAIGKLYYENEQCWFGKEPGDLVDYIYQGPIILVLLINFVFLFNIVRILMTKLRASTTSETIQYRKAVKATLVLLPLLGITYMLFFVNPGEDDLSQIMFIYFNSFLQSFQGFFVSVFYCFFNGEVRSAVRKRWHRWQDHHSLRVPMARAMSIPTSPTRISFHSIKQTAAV
T5 sequence (P24387 whole entry): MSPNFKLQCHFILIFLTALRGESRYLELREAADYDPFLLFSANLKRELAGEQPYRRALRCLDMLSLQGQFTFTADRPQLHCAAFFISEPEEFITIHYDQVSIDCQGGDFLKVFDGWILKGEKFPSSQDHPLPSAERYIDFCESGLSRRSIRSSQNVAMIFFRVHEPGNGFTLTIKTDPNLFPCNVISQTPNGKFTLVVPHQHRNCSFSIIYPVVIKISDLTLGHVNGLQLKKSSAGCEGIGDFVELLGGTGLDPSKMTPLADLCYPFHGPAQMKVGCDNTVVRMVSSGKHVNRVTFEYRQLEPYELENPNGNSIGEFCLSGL

[15] = target: Botulinum neurotoxin type A (Clostridium botulinum (strain Hall / ATCC 3502 / NCTC 13319 / Type A), UniProt P0DPI1); assay: High-throughput multiplex microsphere dose response for inhibitors of toxin protease, specifically Botulinum neurotoxin light chain A protease, compounds from Cherry Pick 01.; assay type: functional; settings: read-out: EC50_MICROM
[16] = blockers of SFLLRN-triggered platelet ATP secretion – cell-based, human platelets, luminescence, dry powder, dose response (AID 493100); assay type: functional
[17] = Luminescence Cell-Based Dose Response Follow up to Identify Inhibitors of Platelet Dense Granule Release. [Related pubchem assays (depositor defined):AID1663, AID1678, AID2398]; assay type: functional
[18] = target: Protein disulfide-isomerase (Homo sapiens, UniProt P07237); assay: PDI inhibitors, insulin aggregation turbidity, dose response, biochemical, absorbance, cherry-picked samples (AID 602350); assay type: functional
[19] = system: HeLa; assay: HeLa cell cytotoxicity, dose response, cytotoxicity control, 48 h, plate reader, cherry-picks (AID 504942); assay type: functional, cell-based; settings: Homo sapiens
[20] = target: T6, Acyl-homoserine lactone acylase PvdQ (Pseudomonas aeruginosa (strain LESB58), UniProt Q9I194); assay: P. aeruginosa PvdQ acylase inhibitors, dose response, biochemical, fluorescence, plate reader and imaging, cherry-picks (AID 493231)
T6 sequence (Q9I194 whole entry): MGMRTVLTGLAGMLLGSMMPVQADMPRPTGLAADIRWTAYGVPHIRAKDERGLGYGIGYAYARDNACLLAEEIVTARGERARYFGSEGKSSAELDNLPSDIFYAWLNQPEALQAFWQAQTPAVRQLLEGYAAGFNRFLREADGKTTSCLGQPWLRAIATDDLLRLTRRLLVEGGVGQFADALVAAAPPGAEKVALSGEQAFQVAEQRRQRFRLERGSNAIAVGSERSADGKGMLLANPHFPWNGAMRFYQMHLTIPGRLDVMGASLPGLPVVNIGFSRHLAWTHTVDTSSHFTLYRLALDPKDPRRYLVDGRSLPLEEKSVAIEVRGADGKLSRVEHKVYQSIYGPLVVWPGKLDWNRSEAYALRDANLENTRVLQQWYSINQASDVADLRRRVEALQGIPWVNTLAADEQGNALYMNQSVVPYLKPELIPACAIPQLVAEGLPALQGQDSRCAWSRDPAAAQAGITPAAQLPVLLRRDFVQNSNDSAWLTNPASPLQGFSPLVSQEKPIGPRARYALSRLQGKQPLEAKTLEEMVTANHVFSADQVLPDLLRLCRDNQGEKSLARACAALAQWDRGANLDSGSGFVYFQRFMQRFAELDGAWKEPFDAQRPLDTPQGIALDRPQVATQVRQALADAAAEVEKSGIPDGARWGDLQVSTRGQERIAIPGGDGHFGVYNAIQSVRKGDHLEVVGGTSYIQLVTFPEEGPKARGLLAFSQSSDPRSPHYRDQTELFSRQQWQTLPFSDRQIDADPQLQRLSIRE

[21] = target: Dual specificity tyrosine-phosphorylation-regulated kinase 1A (Homo sapiens, UniProt Q13627); assay type: functional;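 also: measured against DYRK1A as one member of a broad kinome profiling panel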
[22] = target: Glycogen synthase kinase-3 beta (Homo sapiens, UniProt P49841); assay type: functional;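 also: value comes from a broad kinome profiling panel, with GSK3B as the panel member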
[23] = target: Dual specificity protein kinase CLK4 (Homo sapiens, UniProt Q9HAZ1); assay type: functional
[24] = target: Glycogen synthase kinase-3 alpha (Homo sapiens, UniProt P49840); assay type: functional;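 also: GSK3A result taken from a broad kinome-wide kinase panel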
[25] = target: DNA topoisomerase (Yersinia pestis, UniProt A0A2S9PM60); assay: Y. pestis Topo-I inhibitors, cleavage product readout, dose response, biochemical, cherry-pick (AID 588525)
[26] = system: Jurkat; assay: SAR Analysis of small molecule inhibitors of T-cell specific antigen receptor-induced NF-kB activation in a Jurkat cell line using a luminescence assay - Set 2. [Related pubchem assays (depositor defined):AID435003, AID435012, AID465]; assay type: functional, cell-based; settings: Homo sapiens
[27] = system: HEK293; assay: cytotoxicity in HEK293T NF-kB-Luc cells, SAR follow-up, cytotoxicity control for NF-kB activator project, cell-based, resazurin fluorescence (AID 493251); assay type: functional; settings: Homo sapiens
[28] = system: HEK293; assay: SAR Analysis of small molecule inhibitors of T-cell specific antigen receptor-induced NF-kB activation in a HEK-293T cell line using a luminescence assay - Set 2. [Related pubchem assays (depositor defined):AID435003, AID435012, AID489026]; assay type: functional, cell-based; settings: Homo sapiens

T1 sequence (P0AE70 whole entry): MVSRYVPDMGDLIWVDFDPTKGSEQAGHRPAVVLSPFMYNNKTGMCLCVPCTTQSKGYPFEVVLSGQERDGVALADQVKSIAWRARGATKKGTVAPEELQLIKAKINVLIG
Dual specificity protein kinase CLK4, sequence (Q9HAZ1 whole entry): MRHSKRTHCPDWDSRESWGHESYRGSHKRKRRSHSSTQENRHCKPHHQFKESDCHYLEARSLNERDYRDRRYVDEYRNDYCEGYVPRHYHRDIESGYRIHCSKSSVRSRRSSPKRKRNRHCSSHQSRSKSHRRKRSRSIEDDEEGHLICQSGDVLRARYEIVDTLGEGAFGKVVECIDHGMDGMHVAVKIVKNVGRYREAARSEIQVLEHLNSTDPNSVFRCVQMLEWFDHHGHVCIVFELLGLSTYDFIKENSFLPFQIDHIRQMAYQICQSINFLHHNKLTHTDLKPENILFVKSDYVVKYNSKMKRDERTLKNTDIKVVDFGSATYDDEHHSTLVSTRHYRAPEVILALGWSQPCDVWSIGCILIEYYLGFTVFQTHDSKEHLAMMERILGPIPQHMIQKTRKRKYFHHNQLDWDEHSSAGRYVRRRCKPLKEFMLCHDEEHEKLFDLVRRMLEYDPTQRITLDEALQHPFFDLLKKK
Glycogen synthase kinase-3 alpha, sequence (P49840 whole entry): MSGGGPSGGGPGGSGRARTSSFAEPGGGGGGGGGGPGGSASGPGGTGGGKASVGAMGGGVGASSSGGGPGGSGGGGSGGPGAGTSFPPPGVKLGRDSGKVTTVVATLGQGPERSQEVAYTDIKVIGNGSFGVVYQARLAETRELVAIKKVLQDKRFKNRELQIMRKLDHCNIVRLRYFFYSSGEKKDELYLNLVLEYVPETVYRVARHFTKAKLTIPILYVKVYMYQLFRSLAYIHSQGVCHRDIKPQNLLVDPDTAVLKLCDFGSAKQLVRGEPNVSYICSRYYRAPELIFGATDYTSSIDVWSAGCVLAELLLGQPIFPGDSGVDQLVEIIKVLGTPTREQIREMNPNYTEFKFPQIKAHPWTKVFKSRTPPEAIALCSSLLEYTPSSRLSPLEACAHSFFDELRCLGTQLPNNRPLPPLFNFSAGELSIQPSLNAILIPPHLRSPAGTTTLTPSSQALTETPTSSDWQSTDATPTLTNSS
Protein disulfide-isomerase, sequence (P07237 whole entry): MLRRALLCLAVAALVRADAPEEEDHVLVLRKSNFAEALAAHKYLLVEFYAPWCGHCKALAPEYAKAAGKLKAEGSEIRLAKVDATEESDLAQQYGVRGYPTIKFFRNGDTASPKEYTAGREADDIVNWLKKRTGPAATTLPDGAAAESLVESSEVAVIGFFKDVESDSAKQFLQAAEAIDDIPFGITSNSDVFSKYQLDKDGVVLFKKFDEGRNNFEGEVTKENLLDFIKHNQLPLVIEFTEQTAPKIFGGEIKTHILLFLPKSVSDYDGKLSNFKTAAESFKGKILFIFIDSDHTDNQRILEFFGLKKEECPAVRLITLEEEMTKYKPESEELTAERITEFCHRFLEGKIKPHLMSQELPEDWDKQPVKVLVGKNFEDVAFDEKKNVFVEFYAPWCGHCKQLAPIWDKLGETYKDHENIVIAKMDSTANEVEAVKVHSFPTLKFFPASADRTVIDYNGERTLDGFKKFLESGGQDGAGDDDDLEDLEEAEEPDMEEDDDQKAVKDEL
Botulinum neurotoxin type A, sequence (P0DPI1 2-448 limits assumed): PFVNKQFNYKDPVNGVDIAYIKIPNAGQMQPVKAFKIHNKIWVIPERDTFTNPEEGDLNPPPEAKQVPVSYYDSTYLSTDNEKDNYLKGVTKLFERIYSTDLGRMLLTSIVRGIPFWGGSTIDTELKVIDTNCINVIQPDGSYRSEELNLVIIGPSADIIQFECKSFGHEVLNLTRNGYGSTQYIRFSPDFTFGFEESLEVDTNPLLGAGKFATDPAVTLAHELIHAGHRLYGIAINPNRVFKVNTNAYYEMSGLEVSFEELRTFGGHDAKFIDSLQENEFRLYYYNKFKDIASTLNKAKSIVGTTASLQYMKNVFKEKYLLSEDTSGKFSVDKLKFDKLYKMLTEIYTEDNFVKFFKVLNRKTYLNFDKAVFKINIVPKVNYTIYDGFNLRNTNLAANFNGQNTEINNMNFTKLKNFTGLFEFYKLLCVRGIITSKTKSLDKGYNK
DNA topoisomerase, sequence (A0A2S9PM60 whole entry): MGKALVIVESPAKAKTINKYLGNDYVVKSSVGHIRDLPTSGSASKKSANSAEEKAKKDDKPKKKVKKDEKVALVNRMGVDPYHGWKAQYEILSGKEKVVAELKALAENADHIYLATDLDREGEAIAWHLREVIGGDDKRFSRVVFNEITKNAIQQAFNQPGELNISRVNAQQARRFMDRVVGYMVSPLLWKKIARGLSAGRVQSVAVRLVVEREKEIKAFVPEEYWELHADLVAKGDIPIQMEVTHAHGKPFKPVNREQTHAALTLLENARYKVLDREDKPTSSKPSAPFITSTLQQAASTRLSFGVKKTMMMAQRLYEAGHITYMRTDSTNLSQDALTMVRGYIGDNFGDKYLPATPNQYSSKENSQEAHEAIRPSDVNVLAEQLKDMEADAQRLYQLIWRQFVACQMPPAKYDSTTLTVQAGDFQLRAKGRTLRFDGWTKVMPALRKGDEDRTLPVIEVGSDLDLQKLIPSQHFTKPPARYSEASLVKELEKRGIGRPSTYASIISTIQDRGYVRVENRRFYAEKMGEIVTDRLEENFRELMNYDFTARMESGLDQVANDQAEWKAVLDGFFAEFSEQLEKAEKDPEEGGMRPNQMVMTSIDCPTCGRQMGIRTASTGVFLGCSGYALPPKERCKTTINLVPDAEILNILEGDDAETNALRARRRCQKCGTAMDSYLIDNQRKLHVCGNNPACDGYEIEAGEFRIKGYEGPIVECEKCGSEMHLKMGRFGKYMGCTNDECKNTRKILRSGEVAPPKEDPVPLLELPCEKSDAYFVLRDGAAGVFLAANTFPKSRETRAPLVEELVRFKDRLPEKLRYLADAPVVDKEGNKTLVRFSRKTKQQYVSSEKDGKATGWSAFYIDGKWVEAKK
Galanin receptor type 2, sequence (O43603 whole entry): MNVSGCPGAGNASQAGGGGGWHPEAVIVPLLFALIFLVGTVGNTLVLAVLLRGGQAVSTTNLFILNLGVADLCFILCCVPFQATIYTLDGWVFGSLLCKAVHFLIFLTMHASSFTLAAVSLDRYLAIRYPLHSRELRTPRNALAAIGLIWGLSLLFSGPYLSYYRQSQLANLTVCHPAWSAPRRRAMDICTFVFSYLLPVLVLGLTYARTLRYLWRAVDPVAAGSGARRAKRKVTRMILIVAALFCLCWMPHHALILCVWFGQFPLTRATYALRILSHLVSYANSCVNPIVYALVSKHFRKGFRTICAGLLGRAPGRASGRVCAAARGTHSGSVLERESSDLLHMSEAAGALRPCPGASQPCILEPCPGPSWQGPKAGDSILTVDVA
Botulinum neurotoxin type F, sequence (P30996 1-436 limits assumed): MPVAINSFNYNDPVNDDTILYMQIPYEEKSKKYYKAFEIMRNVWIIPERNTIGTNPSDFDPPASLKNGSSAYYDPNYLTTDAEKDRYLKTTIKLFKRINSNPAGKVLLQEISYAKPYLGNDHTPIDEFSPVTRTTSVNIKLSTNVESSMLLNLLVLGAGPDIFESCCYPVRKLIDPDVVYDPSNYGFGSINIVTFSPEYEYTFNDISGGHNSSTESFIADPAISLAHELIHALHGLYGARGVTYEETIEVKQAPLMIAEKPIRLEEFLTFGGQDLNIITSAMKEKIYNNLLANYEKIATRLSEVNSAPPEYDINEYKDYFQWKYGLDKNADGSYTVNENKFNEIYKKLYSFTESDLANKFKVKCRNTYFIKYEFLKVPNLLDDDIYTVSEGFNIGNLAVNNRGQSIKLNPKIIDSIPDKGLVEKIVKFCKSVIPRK
Glycogen synthase kinase-3 beta, sequence (P49841 whole entry): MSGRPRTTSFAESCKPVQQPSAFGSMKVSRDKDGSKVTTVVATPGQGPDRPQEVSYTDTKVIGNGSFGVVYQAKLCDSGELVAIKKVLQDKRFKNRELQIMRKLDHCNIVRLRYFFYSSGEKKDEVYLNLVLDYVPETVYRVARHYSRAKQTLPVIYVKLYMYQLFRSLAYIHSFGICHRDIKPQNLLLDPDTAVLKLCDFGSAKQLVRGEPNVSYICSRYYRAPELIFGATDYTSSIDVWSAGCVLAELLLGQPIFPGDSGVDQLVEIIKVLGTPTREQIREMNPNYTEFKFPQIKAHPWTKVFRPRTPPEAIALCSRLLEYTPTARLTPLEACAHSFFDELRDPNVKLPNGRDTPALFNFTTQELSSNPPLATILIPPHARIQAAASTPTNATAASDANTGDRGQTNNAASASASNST
Lethal factor, sequence (P15917 whole entry): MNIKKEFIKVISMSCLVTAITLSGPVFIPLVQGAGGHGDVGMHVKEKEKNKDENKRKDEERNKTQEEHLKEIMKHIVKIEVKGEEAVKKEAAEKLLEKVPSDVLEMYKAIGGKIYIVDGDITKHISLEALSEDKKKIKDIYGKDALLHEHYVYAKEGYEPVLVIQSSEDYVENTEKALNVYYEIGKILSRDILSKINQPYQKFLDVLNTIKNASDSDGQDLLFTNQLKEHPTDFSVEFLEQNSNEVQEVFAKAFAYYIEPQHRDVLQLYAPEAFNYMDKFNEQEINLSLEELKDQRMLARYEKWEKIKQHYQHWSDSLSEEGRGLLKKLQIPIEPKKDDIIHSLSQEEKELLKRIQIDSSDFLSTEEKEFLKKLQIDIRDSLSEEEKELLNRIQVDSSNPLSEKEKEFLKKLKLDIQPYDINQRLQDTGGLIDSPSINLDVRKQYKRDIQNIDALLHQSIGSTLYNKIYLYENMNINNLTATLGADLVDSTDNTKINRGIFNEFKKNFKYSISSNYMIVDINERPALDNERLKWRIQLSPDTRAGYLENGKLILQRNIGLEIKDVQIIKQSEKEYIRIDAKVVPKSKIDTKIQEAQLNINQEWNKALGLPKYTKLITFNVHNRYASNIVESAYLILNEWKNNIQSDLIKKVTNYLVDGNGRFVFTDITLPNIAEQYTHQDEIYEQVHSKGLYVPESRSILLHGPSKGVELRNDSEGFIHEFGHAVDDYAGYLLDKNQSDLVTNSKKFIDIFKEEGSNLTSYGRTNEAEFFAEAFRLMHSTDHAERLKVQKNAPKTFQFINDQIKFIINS

Structure (SMILES): O=C(Cc1cccs1)Nc1cccc(-c2nc3cc4ccccc4cc3[nH]2)c1
- EC50 [1]: > 99 µM (inactive)
- EC50 [2]: 4.51 µM (active)
- IC50 [3]: > 42 µM (not active)
- EC50 [4]: > 99 µM (inactive)
- EC50 [5]: 14.9 µM (active)
- EC50 [6]: > 150 µM (not active)

Structure (SMILES): O=C(Oc1cccc(/C=N/Nc2nc(Nc3ccccc3)nc(N3CCOCC3)n2)c1)c1ccco1
- EC50 [2]: 9.28 µM (active)
- AC50 [7]: 56.1 µM (active)
- EC50 [5]: 16 µM (active)
- EC50 [6]: > 150 µM (not active)
- IC50 [8]: > 80 µM (inactive)

Structure (SMILES): CCc1ccc(CN2CCC(Oc3ccc(C(=O)N4CCCC4)cc3)CC2)cc1
- EC50 [9]: 0.936 µM (active)

Structure (SMILES): O=c1c(/C=C(\O)c2ccccc2)nc2ccccc2n1-c1ccccc1
- EC50 [10]: 78.2 µM (inconclusive)
- EC50 [11]: 20 µM (inactive)
- EC50 [12]: 20 µM (inactive)
- EC50 [13]: 6.1 µM (inconclusive)
- EC50 [14]: 11.6 µM (active)
- EC50 [15]: 20 µM (inactive)

Structure (SMILES): CC(=O)Nc1ccc(/C(C)=N/NC(=O)C2CCCC2)cc1
- AC50 [16]: 126 µM (active)
- EC50 [17]: 11.3 µM (active)

Structure (SMILES): C[C@@H]1CN([C@H](C)CO)C(=O)c2cccc(NS(C)(=O)=O)c2O[C@H]1CN(C)Cc1ccc(Oc2ccccc2)cc1
- AC50 [18]: 18.8 µM (active)

Structure (SMILES): Cc1cc(NC(=O)Nc2ccccc2[N+](=O)[O-])no1
- AC50 [19]: > 380 µM (inactive)
- AC50 [20]: 2.02 µM (active)

Structure (SMILES): COc1nc(N)c(C#N)c(-c2ccc(Cl)cc2Cl)c1C#N
- Ki [21]: 5.01 µM (active)
- Ki [22]: 2.51 µM (active)
- Ki [23]: 7.94 µM (active)
- Ki [24]: 2.51 µM (active)

Structure (SMILES): O=C(C[C@H]1C/C=C\CC[C@H](Cc2ccc(F)cc2)C(=O)O[C@@H](c2ccccc2)CNC1=O)N[C@@H](CO)Cc1ccccc1
- AC50 [25]: > 38 µM (inactive)

Structure (SMILES): CCCCNC(=O)CCc1nc(-c2ccc(C(C)(C)C)cc2)no1
- IC50 [26]: > 79 µM (inactive)
- IC50 [27]: > 80 µM (inactive)
- IC50 [28]: 14.5 µM (active)
